From patent US9650348B2, “Triazines with suitable spacers for treatment and/or prevention of HIV infections” (Universiteit Antwerpen, priority 2012, dated 2017) come the findings set out here.

A value given as a limit tells only on which side of the number the result lay.

The subject of data set [1] is Ba-L K101E + K103N + V108VI + V179M + Y181C + E138Q. The data set can be described thus: Antiviral activity, NNRTI-resistant virus K101E+K103N+V108VI+V179M+Y181C+E138Q. Format: cell-based, HIV-1. The note with it: for FC (*): Ba-L, * = K101E + K103N + V108VI + V179M + Y181C + E138Q; for EC50: Human immunodeficiency virus 1, BAL, read-out: Antiviral activity-NNRTI-resistant viruses EC50 Ba-L *. The procedure:
(§1) The target compounds are evaluated for their anti-HIV-1 activity and cytotoxicity. In a primary screen, the anti-HIV activity against the laboratory strain Ba-L and against a primary subtype C isolate was determined in the TZM-bl cell line. Cellular toxicity on TZM-bl cells was evaluated using WST-1. Based on the primary screening results, the target compound was further evaluated for anti-HIV activity in different primary cells, including peripheral blood mononuclear cells, dendritic cells and CD4+ T lymphocytes. In addition, the activity against NNRTI-resistant viruses (V106A, Y181C, L100I+K103N, L100I+E138K+T369I and K101E+K103N+V108VI+V179M+Y181C+E138Q) was tested. Diarylpyrimidines (DAPY) TMC120, TMC125 and TMC278 were used as reference compounds.

The subject of data set [2] is HIV-1 BaL. The data set can be described thus: TZM-bl antiviral assay, wild type HIV-1 Ba-L. Format: cell-based. The note with it: Human immunodeficiency virus 1, BAL; TZM-bl cells, Ba-L wild type; read-out: Antiviral activity-wild type viruses EC50 TZM-bI Ba-L. Here is the method: (§2) The JC53-BL cell line, also known as the TZM-bl cell line (NIH AIDS Research and Reference Reagent Program, Germantown, USA), was used for the evaluation of anti-HIV activity. TZM-bl cells were cultured in Dulbecco's […] (DMEM) (Lonza) containing 10% heat-inactivated FBS and 50 μg gentamycin/mL at 37° C. in a humidified 5% CO2, 95% air environment. Twice a week the cells were treated with 0.25% trypsin-1 mM EDTA (Lonza) for 10 minutes. The resulting cell suspension was washed with an equivalent amount of TZM-bl medium and subsequently seeded in a T75 culture flask (Greiner Bio-One, Germany) at 10^6 cells in 20 mL medium.
(§3) The antiviral activity of the newly designed compounds was measured by pre-incubating ten thousand TZM-bl cells (at 10^5 cells/mL in culture medium supplemented with 30 μg/mL DEAE dextran) in a 96-well plate for 30 minutes at 37° C., 5% CO2 in the presence or absence of serial dilutions of the respective compound. Subsequently, 200 TCID50 of HIV-1 BaL was added to each well and cultures were incubated for 48 hours before quantifying luciferase activity, using a TriStar LB941 luminometer (Berthold Technologies GmbH & Co. KG, Bad Wildbad, Germany). Each condition was evaluated in triplicate wells and in at least two independent experiments. The antiviral activity of the compound was expressed as the percentage of viral inhibition compared to the untreated controls and subsequently plotted against the compound concentration.
(§4) The target compounds are evaluated for their anti-HIV-1 activity and cytotoxicity. In a primary screen, the anti-HIV activity against the laboratory strain Ba-L and against a primary subtype C isolate was determined in the TZM-bl cell line. Cellular toxicity on TZM-bl cells was evaluated using WST-1. […] In addition, the activity against NNRTI-resistant viruses (V106A, Y181C, L100I+K103N, L100I+E138K+T369I and K101E+K103N+V108VI+V179M+Y181C+E138Q) was tested. Diarylpyrimidines (DAPY) TMC120, TMC125 and TMC278 were used as reference compounds.

Data set [3] can be described thus: in vitro. In kind it is cell-based. The note with it: human, Cytotoxicity CC50 TZM-bI.
From the text: The Water Soluble Tetrazolium-1 (WST-1) Cell Proliferation Assay is a colorimetric assay for the measurement of cell proliferation and viability. The assay is based on the cleavage of the tetrazolium salt WST-1 (4-[3-(4-iodophenyl)-2-(4-nitrophenyl)-2H-5-tetrazolio]-1,3-benzene disulfonate) to a formazan dye by a complex cellular mechanism. This bioreduction is largely dependent on the glycolytic production of NAD(P)H in viable cells. Therefore, the amount of formazan dye formed correlates directly to the number of viable cells in the culture, and can be quantified by measuring the absorbance at 450 nm in a multiwell plate reader. The greater the number of viable cells, the greater the amount of formazan dye produced following the addition of WST-1. Cytotoxicity of each compound was evaluated using this WST-1 viability assay, according to the manufacturer's instructions (Roche, Vilvoorde, Belgium).
Briefly, ten thousand TZM-bl cells were seeded in a 96-well plate and cultured for 2 days in the presence of a serial dilution of compound. After this 48 h exposure, Cell Proliferation Reagent, WST-1, was added and absorbance at 450 nm was quantified after 90 min using a microplate reader (BioRad, Tokio, Japan). Each compound was tested in three replicate wells and in at least two independent experiments.
as §4

The test system of data set [4] is VI829. In words: TZM-bl antiviral assay, wild type VI829 (primary subtype C isolate). To be noted: Human immunodeficiency virus 1; TZM-bl cells, VI829 wild type; read-out: Antiviral activity-wild type viruses EC50 TZM-bI VI829. Format: cell-based, HIV-1. Here is the method:
as §2, §3, §4

Data set [5] has as its system Ba-L V106A. The data set can be described thus: Antiviral activity, NNRTI-resistant virus V106A. Format: cell-based, HIV-1. The note with it: for FC (V106A): Ba-L V106A; for EC50: Human immunodeficiency virus 1, BAL, read-out: Antiviral activity-NNRTI-resistant viruses EC50 Ba-L V106A. The procedure: as §4
Data set [6] has as its system VI829 L100I+K103N. In words: Antiviral activity, NNRTI-resistant virus L100I+K103N. Format: cell-based, HIV-1. To be noted: for EC50: Human immunodeficiency virus 1, read-out: Antiviral activity-NNRTI-resistant viruses EC50 VI829 L100I+K103N; for FC (L100I+K103N): VI829 L100I+K103N. The procedure: as §4
For data set [7], the system named is VI829 L100I+E138K+T369I. The data set can be described thus: Antiviral activity, NNRTI-resistant virus L100I+E138K+T369I. In kind it is cell-based, HIV-1. To be noted: VI829, ** = L1001 + E138K + T3691. The procedure: as §1
Data set [8] has as its system VI829 Y181C. The data set can be described thus: Antiviral activity, NNRTI-resistant virus Y181C. In kind it is cell-based, HIV-1. The note with it: for EC50: Human immunodeficiency virus 1, read-out: Antiviral activity-NNRTI-resistant viruses EC50 VI829 Y181C; for FC (Y181C): VI829 Y181C. The procedure: as §4

As for `N#CC=Cc1cc(F)c(Nc2nc(N)nc(Nc3ccc(C#N)cc3)n2)c(F)c1` [T10, 4-((4-amino-6-((4-(2-cyanovinyl)-2,6-difluorophenyl)amino)-1,3,5-triazin-2-yl)amino)benzonitrile], in data set [1], the “FC (*)” value turned out to be 1113 and the EC50 came to 590 nM. In addition, the EC50 in data set [2] was found to be 0.53 nM. The molecule also had a CC50 at 48 h in data set [3] of 21400 nM.

As for `Cc1cc(C=CC#N)cc(C)c1Nc1nc(Nc2ccc(C#N)cc2)nc(N2CCCCC2)n1` [T7, 4-((4-((4-(2-cyanovinyl)-2,6-dimethylphenyl)amino)-6-(piperidin-1-yl)-1,3,5-triazin-2-yl)amino)benzonitrile], the EC50 in data set [4] was 19 nM; in data set [1], more than 1000 nM; in data set [5], 126 nM; in data set [6], more than 1000 nM; in data set [2], 18 nM; in data set [8], 221 nM. Moreover, the “FC (*)” value in data set [1] was more than 55. For the same molecule, in data set [5], the “FC (V106A)” value is on record as 7. The “FC (L100I+K103N)” value in data set [6] is recorded as more than 50. Besides, the “FC (**)” value in data set [7] is more than 50. In data set [8], the “FC (Y181C)” value worked out at 12. In addition, the CC50 at 48 h in data set [3] is more than 100000 nM.

As to `Cc1cc(C=CC#N)cc(C)c1Oc1nc(N)nc(Nc2ccc(C#N)cc2)n1` [T11, 4-((4-amino-6-(4-(2-cyanovinyl)-2,6-dimethylphenoxy)-1,3,5-triazin-2-yl)amino)benzonitrile], the EC50 in data set [4] stood at 0.64 nM; in data set [1] it was 62 nM; in data set [5], 2.5 nM; in data set [6] it was 17 nM; in data set [2] it was 1.1 nM; in data set [8] it was 4.1 nM. Also, the “FC (*)” value in data set [1] is 56. Besides, the “FC (V106A)” value in data set [5] is on record as 2. Moreover, in data set [6], the “FC (L100I+K103N)” value stood at 27. Besides, the “FC (**)” value in data set [7] amounted to 167. In data set [8], the “FC (Y181C)” value amounted to 6. This molecule also came in with a CC50 at 48 h in data set [3] of 19100 nM.

`Cc1cc(C=CC#N)cc(C)c1Nc1nc(Nc2ccc(C#N)cc2)nc(N(C)C)n1` [T5, 4-((4-((4-(2-cyanovinyl)-2,6-dimethylphenyl)amino)-6-(dimethylamino)-1,3,5-triazin-2-yl)amino)benzonitrile]: the EC50 was determined as 4.4 nM in data set [4]; 455 nM in data set [1]; 12 nM in data set [5]; 74 nM in data set [6]; 5.8 nM in data set [2]; 27 nM in data set [8]. In data set [1], the “FC (*)” value amounted to 78. In data set [5], the “FC (V106A)” value came to 2. Moreover, the “FC (L100I+K103N)” value in data set [6] is reported as 17. Also, the “FC (**)” value in data set [7] came to 31. In addition, the “FC (Y181C)” value in data set [8] amounted to 6. Also, in data set [3], the midpoint of cytotoxicity, the CC50 at 48 h, lay at 8060 nM.

Consider `Cc1cc(C=CC#N)cc(C)c1Oc1nc(Nc2ccc(C#N)cc2)nc(N2CCCCC2)n1` [T14, 4-((4-(4-(2-cyanovinyl)-2,6-dimethylphenoxy)-6-(piperidin-1-yl)-1,3,5-triazin-2-yl)amino)benzonitrile], for which the “FC (*)” value in data set [1] was more than 47. Besides, the EC50 in data set [1] was more than 1000 nM; in data set [2] it was 21 nM. This molecule also displayed a CC50 at 48 h in data set [3] of more than 100000 nM.

Consider `CNc1nc(Nc2ccc(C#N)cc2)nc(Oc2c(C)cc(C=CC#N)cc2C)n1` [T12, 4-((4-(4-(2-cyanovinyl)-2,6-dimethylphenoxy)-6-(methylamino)-1,3,5-triazin-2-yl)amino)benzonitrile], for which the EC50 in data set [4] amounted to 1.6 nM; in data set [1] it was 77 nM; in data set [5], 6.5 nM; in data set [6], 24 nM; in data set [2], 1.6 nM; in data set [8], 7.4 nM. Besides, in data set [1], the “FC (*)” value was determined as 48. In addition, in data set [5], the “FC (V106A)” value turned out to be 4. Also, the “FC (L100I+K103N)” value in data set [6] is reported as 15. Also, the “FC (**)” value in data set [7] amounted to 44. The “FC (Y181C)” value in data set [8] came out at 5. The same molecule showed a CC50 at 48 h in data set [3] of 20000 nM.

Consider `Cc1cc(C=CC#N)cc(C)c1Nc1nc(Nc2ccc(C#N)cc2)nc(N2CCOCC2)n1` [T8, 4-((4-((4-(2-cyanovinyl)-2,6-dimethylphenyl)amino)-6-morpholino-1,3,5-triazin-2-yl)amino)benzonitrile], for which, in data set [1], the “FC (*)” value is recorded as 89 and the EC50 was found to be 634 nM. Besides, in data set [2], the EC50 was determined as 7.1 nM. For the same molecule, the CC50 at 48 h in data set [3] came out at 11400 nM.

Consider `Cc1cc(C=CC#N)cc(C)c1Nc1nc(Nc2ccc(C#N)cc2)nc(N2CCN(C)CC2)n1` [T9, 4-((4-((4-(2-cyanovinyl)-2,6-dimethylphenyl)amino)-6-(4-methylpiperazin-1-yl)-1,3,5-triazin-2-yl)amino)benzonitrile], for which, in data set [1], the “FC (*)” value amounted to 37 and the EC50 came out at 316 nM. Also, the EC50 in data set [2] was found to be 8.5 nM. The same molecule showed a CC50 at 48 h in data set [3] of 21200 nM.

With `Cc1cc(C=CC#N)cc(C)c1Oc1nc(Nc2ccc(C#N)cc2)nc(N(C)C)n1` [T13, 4-((4-(4-(2-cyanovinyl)-2,6-dimethylphenoxy)-6-(dimethylamino)-1,3,5-triazin-2-yl)amino)benzonitrile], in data set [1], the “FC (*)” value was 231 and the EC50 was 786 nM. Moreover, the EC50 in data set [2] came to 3.4 nM. In data set [3], this molecule displayed a CC50 at 48 h of 7850 nM.

Turning to `CNc1nc(Nc2ccc(C#N)cc2)nc(Nc2c(C)cc(C=CC#N)cc2C)n1` [T4, 4-((4-((4-(2-cyanovinyl)-2,6-dimethylphenyl)amino)-6-(methylamino)-1,3,5-triazin-2-yl)amino)benzonitrile], in data set [1], the “FC (*)” value is recorded as 39 and the EC50 was determined as 66 nM. For the same molecule, the EC50 in data set [2] came to 1.7 nM. For the same molecule, in data set [3], the 50% cytotoxic concentration (CC50) at 48 h worked out at 5910 nM.
